Values joined by “and” are separate entries in the source; they are usually repeats but may differ in a detail not shown here. Equal entries are not always repeated. Where two headings read alike, the source gives them in different places.
Columns and labels:
[1] = biological target: T1, Type II 5α-Reductase from Human Prostate (Homo sapiens, UniProt P31213); assay: Human Type II 5α-reductase assay (conversion of [3H]-testosterone to 5α-reduced metabolites); type: biochemical
T1 construct: The same procedure as above was used for preparations using tissue from prostate surgery; from tissue; host or cells: human prostate tissue from surgery, homogenate, 100,000×g pellet
T1 sequence (P31213 1-254): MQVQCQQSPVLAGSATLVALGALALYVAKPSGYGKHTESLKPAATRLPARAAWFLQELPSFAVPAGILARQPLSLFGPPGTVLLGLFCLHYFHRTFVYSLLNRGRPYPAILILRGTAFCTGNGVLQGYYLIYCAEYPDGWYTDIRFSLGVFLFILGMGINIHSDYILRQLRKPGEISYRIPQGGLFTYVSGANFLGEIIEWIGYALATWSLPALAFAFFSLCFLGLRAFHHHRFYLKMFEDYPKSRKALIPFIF

[2] = biological target: T2, Type I 5α-Reductase from Human Scalp (Homo sapiens, UniProt P18405); assay: Human Type I 5α-reductase assay (conversion of [3H]-testosterone to 5α-reduced metabolites); type: biochemical; settings: for percent inhibition of Type I AR: 0.3 μM
T2 construct: Scalp punch biopsies from graft recipient sites were obtained from human hair transplant procedures; from tissue; host or cells: human scalp punch biopsies (hair transplant graft recipient sites), homogenate, 100,000×g pellet
T2 sequence (P18405 1-259): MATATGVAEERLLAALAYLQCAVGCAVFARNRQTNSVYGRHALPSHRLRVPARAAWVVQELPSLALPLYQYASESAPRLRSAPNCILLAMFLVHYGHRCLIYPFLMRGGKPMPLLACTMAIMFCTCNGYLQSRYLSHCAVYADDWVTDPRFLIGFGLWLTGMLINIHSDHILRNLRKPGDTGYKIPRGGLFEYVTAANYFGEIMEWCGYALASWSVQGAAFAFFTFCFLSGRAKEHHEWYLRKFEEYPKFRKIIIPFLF

[3] = pH 5.5, 0.3 μM, sodium acetate pH 5.5, 25°, 30 min, compared to control reaction mixtures, read-out: percent inhibition of Type II AR
[4] = pH 7.5, 0.3 μM, 50 nM [3H]-testosterone, pH 7.5, 25°, 180 min, compared to control reaction mixtures, read-out: percent inhibition of Type I AR
[5] = 50 nM [3H]-testosterone, pH 7.5, 25°, 180 min, compared to control reaction mixtures

Row | Structure (SMILES) | inhibition at 0.3 µM [1, 3] [%] | inhibition at 0.3 µM [2, 4] [%] | also measured
1 | CN1C(=O)CC[C@]2(C)c3ccc(-c4ccc(Cl)c(C(F)(F)F)c4)cc3CC[C@@H]12 [Example 24, (+)-(4aR)-(10bR)-4-methyl-8-(4-chloro-3-trifluoromethylphenyl)-10b-methyl-1,2,3,4,4a,5,6,10b-octahydrobenzo[f]-quinolin-3-one] | 28 | 88 | –
2 | CN1C(=O)CC[C@]2(C)c3ccc(-c4ccc(O)c(Cl)c4)cc3CC[C@@H]12 [Example 25, (+)-(4aR)-(10bR)-4-methyl-8-(3-chloro-4-hydroxyphenyl)-10b-methyl-1,2,3,4,4a,5,6,10b-octahydrobenzo[f]quinolin-3-one] | 31 | 83 | –
3 | CN1C(=O)CC[C@]2(C)c3ccc(-c4ccc(O)c(F)c4)cc3CC[C@@H]12 [Example 28, (+)-(4aR)-(10bR)-4-methyl-8-(3-fluoro-4-hydroxyphenyl)-10b-methyl-1,2,3,4,4a,5,6,10b-octahydrobenzo[f]quinolin-3-one] | 36 | 65 | –
4 | CN1C(=O)CC[C@]2(C)c3ccc(-c4ccc5c(c4)OCCO5)cc3CC[C@@H]12 [Example 29, (+)-(4aR)-(10bR)-4-methyl-8-(3,4-ethylenedioxyphenyl)-10b-methyl-1,2,3,4,4a,5,6,10b-octahydrobenzo[f]quinolin-3-one] | 26 | 78 | –
5 | CN1C(=O)CC[C@]2(C)c3ccc(-c4cc(C(C)(C)C)c(O)c(C(C)(C)C)c4)cc3CC[C@@H]12 [Example 30, (+)-(4aR)-(10bR)-4-methyl-8-(3,5-di [t-butyl]-4-hydroxyphenyl)-10b-methyl-1,2,3,4,4a,5,6,10b-octahydrobenzo[f]quinolin-3-one] | 21 | 19 | –
6 | CN1C(=O)CC[C@]2(C)c3ccc(-c4ccc(F)cc4C(F)(F)F)cc3CC[C@@H]12 [Example 31, (+)-(4aR)-(10bR)-4-methyl-8-(2-trifluoromethyl-4-fluorophenyl)-10b-methyl-1,2,3,4,4a,5,6,10b-octahydrobenzo[f]-quinolin-3-one] | – | – | inhibition at 0.3 µM ([1]; pH 5.5, read-out: percent inhibition of Type II AR): 22%; inhibition at 0.3 µM ([2]; pH 7.5, read-out: percent inhibition of Type I AR): 84%
7 | CN1C(=O)CC[C@]2(C)c3ccc(-c4ccc(NC(=O)C(C)(C)C)c5ccccc45)cc3CC[C@@H]12 [Example 32, (+)-(4aR)-(10bR)-4-methyl-8-(1-[4-t-butylcarbonylamino]naphthyl)-10b-methyl-1,2,3,4,4a,5,6,10b-octahydrobenzo[f]-quinolin-3-one] | 18 | 71 | –
8 | CN1C(=O)CC[C@]2(C)c3ccc(-c4cc(C(F)(F)F)ccc4Cl)cc3CC[C@@H]12 [Example 33, (+)-(4aR)-(10bR)-4-methyl-8-(2-chloro-5-trifluoromethylphenyl)-10b-methyl-1,2,3,4,4a,5,6,10b-octahydrobenzo[f]-quinolin-3-one] | 40 | 55 | –
9 | CN1C(=O)CC[C@]2(C)c3ccc(-c4cccc(C(=O)NC(C)(C)C)c4)cc3CC[C@@H]12 [Example 34, (+)-(4aR)-(10bR)-4-methyl-8-(3-t-butylcarboxamidophenyl)-10b-methyl-1,2,3,4,4a,5,6,10b-octahydrobenzo[f]quinolin-3-one] | 5 | 13 | –
10 | CCN(CC)C(=O)c1c(-c2ccc3c(c2)CC[C@H]2N(C)C(=O)CC[C@]32C)ccc2ccccc12 [Example 35, (+)-(4aR)-(10bR)-4-methyl-8-(2-[1-diethylcarboxamido]naphthyl)-10b-methyl-1,2,3,4,4a,5,6,10b-octahydrobenzo[f]-quinolin-3-one] | 27 | 17 | –
11 | COc1cc(-c2ccc3c(c2)CC[C@H]2N(C)C(=O)CC[C@]32C)ccc1O [Example 36, (+)-(4aR)-(10bR)-4-methyl-8-(4-hydroxy-3-methoxyphenyl)-10b-methyl-1,2,3,4,4a,5,6,10b-octahydrobenzo[f]quinolin-3-one] | 52 | 41 | –
12 | CN1C(=O)CC[C@]2(C)c3ccc(-c4ccc(NC(=O)C(C)(C)C)cc4)cc3CC[C@@H]12 [Example 37, (+)-(4aR)-(10bR)-4-methyl-8-(4-t-butylcarbonylaminophenyl)-10b-methyl-1,2,3,4,4a,5,6,10b-octahydrobenzo[f]quinolin-3-one] | 58 | 72 | –
13 | CN1C(=O)CC[C@]2(C)c3ccc(-c4ccccc4F)cc3CC[C@@H]12 [Example 38, (+)-(4aR)-(10bR)-4-methyl-8-(2-fluorophenyl)-10b-methyl-1,2,3,4,4a,5,6,10b-octahydrobenzo[f]quinolin-3-one] | 56 | 84 | percent inhibition of Type II AR ([1]; 0.3 μM, sodium acetate pH 5.5, 25°, 30 min, compared to control reaction mixtures): 38%
14 | COc1ccccc1-c1ccc2c(c1)CC[C@H]1N(C)C(=O)CC[C@]21C [Example 39, (+)-(4aR)-(10bR)-4-methyl-8-(2-methoxyphenyl)-10b-methyl-1,2,3,4,4a,5,6,10b-octahydrobenzo[f]quinolin-3-one] | 34 | 81 | –
15 | Cc1ccccc1-c1ccc2c(c1)CC[C@H]1N(C)C(=O)CC[C@]21C [Example 40, (+)-(4aR)-(10bR)-4-methyl-8-(2-methylphenyl)-10b-methyl-1,2,3,4,4a,5,6,10b-octahydrobenzo[f]quinolin-3-one] | 35 | 90 | –
16 | CN1C(=O)CC[C@]2(C)c3ccc(-c4ccccc4Cl)cc3CC[C@@H]12 [Example 41, (+)-(4aR)-(10bR)-4-methyl-8-(2-chlorophenyl)-10b-methyl-1,2,3,4,4a,5,6,10b-octahydrobenzo[f]quinolin-3-one] | 18 | 88 | –
17 | CN1C(=O)CC[C@]2(C)c3ccc(-c4ccccc4C(F)(F)F)cc3CC[C@@H]12 [Example 43, (+)-(4aR)-(10bR)-4-methyl-8-(2-trifluoromethylphenyl)-10b-methyl-1,2,3,4,4a,5,6,10b-octahydrobenzo[f]quinolin-3-one] | 18 | 68 | –
18 | CN1C(=O)CC[C@]2(C)c3ccc(-c4ccc(F)c(C(F)(F)F)c4)cc3CC[C@@H]12 [Example 46, (+)-(4aR)-(10bR)-4-methyl-8-(4-fluoro-3-trifluoromethylphenyl)-10b-methyl-1,2,3,4,4a,5,6,10b-octahydrobenzo[f]-quinolin-3-one] | 31 | 3 | –
19 | CN1C(=O)CC[C@]2(C)c3ccc(-c4ccccc4)cc3CC[C@@H]12 [Example 49, (+)-(4aR)-(10bR)-4-methyl-8-phenyl-10b-methyl-1,2,3,4,4a,5,6,10b-octahydrobenzo[f]quinolin-3-one] | 4 | 96 | –
20 | CN1C(=O)CC[C@]2(C)c3ccc(-c4ccc(Cl)cc4)cc3CC[C@@H]12 [Example 50, (+)-(4aR)-(10bR)-4-methyl-8-(4-chlorophenyl)-10b-methyl-1,2,3,4,4a,5,6,10b-octahydrobenzo[f]quinolin-3-one] | 32 | 95 | percent inhibition of Type I AR [2, 5]: 94%
21 | Cc1ccc(-c2ccc3c(c2)CC[C@H]2N(C)C(=O)CC[C@]32C)cc1 [Example 51, (+)-(4aR)-(10bR)-4-methyl-8-(4-methylphenyl)-10b-methyl-1,2,3,4,4a,5,6,10b-octahydrobenzo[f]quinolin-3-one] | 14 | 91 | –
22 | CN1C(=O)CC[C@]2(C)c3ccc(-c4cc(Cl)cc(Cl)c4)cc3CC[C@@H]12 [Example 52, (+)-(4aR)-(10bR)-4-methyl-8-(3,5-dichlorophenyl)-10b-methyl-1,2,3,4,4a,5,6,10b-octahydrobenzo[f]quinolin-3-one] | 10 | 68 | –
23 | CN1C(=O)CC[C@]2(C)c3ccc(-c4cccc5ccccc45)cc3CC[C@@H]12 [Example 53, (+)-(4aR)-(10bR)-4-methyl-8-(1-naphthyl)-10b-methyl-1,2,3,4,4a,5,6,10b-octahydrobenzo[f]quinolin-3-one] | 41 | – | percent inhibition of Type I AR [2, 5]: 100% and 66%
24 | CN1C(=O)CC[C@]2(C)c3ccc(-c4cccc(-c5ccccc5)c4)cc3CC[C@@H]12 [Example 55, (+)-(4aR)-(10bR)-4-methyl-8-(3-biphenyl)-10b-methyl-1,2,3,4,4a,5,6,10b-octahydrobenzo[f]quinolin-3-one] | 11 | 68 | –
25 | CN1C(=O)CC[C@]2(C)c3ccc(-c4ccc(Oc5ccccc5)cc4)cc3CC[C@@H]12 [Example 56, (+)-(4aR)-(10bR)-4-methyl-8-(4-phenoxyphenyl)-10b-methyl-1,2,3,4,4a,5,6,10b-octahydrobenzo[f]quinolin-3-one] | 3 | 92 | –

From patent US5622962A, “5α-reductase inhibitors” (priority 1995, dated 1997)
